Values quoted from earlier work, collected in patent US10399920B2, “Crystalline form of cannabidiol” (S&B Pharma, Inc., priority 2016, dated 2019).

System: epilepsy
Conditions: animal studies; dosed at 50 and 100 mg/kg intra-peritoneally; Cannabidiol prepared by non-synthetic methods

## C=C(C)[C@@H]1CCC(C)=C[C@H]1c1c(O)cc(CCCCC)cc1O [Cannabidiol]
  reducing mortality: effective in reducing mortality
